Measurements reported in US11104648B2, “Pyrazole derivative” (Zhejiang Research Institute of Chemical Industry Co., Ltd., priority 2018, dated 2021).
Like-named read-outs stand apart in the source and are kept apart here.

Assays:
Type in all cases: in vivo
[1] = test system: Eggs of Tetranychus Cinnabarinus; assay: Activity assay of eggs of Tetranychus cinnabarinus (spray method, ovicidal); conditions: Tetranychus cinnabarinus; for pest or weed control at 2 µg/mL: concentration 2 mg/L
Procedure, shortened: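 Ovicidal spray test: compound dissolved in DMF, diluted with 1‰ Tween 80 (DMF ≤10%), sprayed on eggs laid during 24 h by females on broad bean leaves. Culture at 26±2° C, 70–80% RH, 16 h photoperiod; non-hatched eggs scored as dead when blank control hatched; three repeats.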

[2] = test system: Tetranychus cinnabarinus Nymphs; assay: Activity assay of Tetranychus cinnabarinus nymphs (spray on broad bean leaves)
Procedure, shortened: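 Mortality, judged as no response to gentle touch, was scored 48 h after spraying Tetranychus cinnabarinus nymphs on broad bean leaves (eggs from females removed after 24 h). Test solutions: DMF-dissolved compound, ≤10% DMF, in 1‰ Tween 80; 26±2° C., 70%–80% RH, 16 h light; triplicate, blank control.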

[3] = test system: adult Tetranychus cinnabarinus; assay: Activity assay of adult Tetranychus cinnabarinus (whole-plant spray on bean seedlings); conditions: 48 h; for pest or weed control at 1.25 µg/mL: concentration 1.25 mg/L
Procedure, shortened: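 Whole plants sprayed after adult mite inoculation and initial census, using compound dissolved in DMF and made up with 1‰ Tween 80 water (DMF not above 10%). Mortality derived from survivor counts at 48 h after treatment. Each treatment run in triplicate.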

[4] = concentration 5 mg/L, spray, non-incubated eggs counted as dead, read-out: ovicidal activity
[5] = 48 h, concentration 2.5 mg/L, read-out: nymph-killing activity
[6] = concentration 2.5 mg/L, read-out: adult mite-killing activity
[7] = 48 h, read-out: nymph-killing activity
[8] = read-out: adult mite-killing activity
[9] = spray, read-out: ovicidal activity
[10] = 48 h, concentration 2 mg/L, read-out: nymph-killing activity
[11] = eggs, parallel determination, read-out: Death rate (%)
[12] = 48 h, nymphs, concentration 0.5 mg/L, parallel determination, read-out: Death rate (%)
[13] = adult mites, parallel determination, read-out: Death rate (%)

Row | Structure (SMILES) | pest or weed control at 5 µg/mL [1, 4] | pest or weed control at 2.5 µg/mL [2, 5] | pest or weed control at 2.5 µg/mL [3, 6] | also measured
1 | CCn1nc(C)cc1/C(OC(C)OC(=O)OCCC(C)C)=C(\C#N)c1ccc(C(C)(C)C)cc1 (stereo not drawn) [Compound 586] | ≥ 90% | ≥ 95% | ≥ 90% | –
2 | CCn1nc(C)cc1/C(OCOC(=O)CF)=C(\C#N)c1ccc(C(C)(C)C)cc1 [Compound 237] | – | – | – | pest or weed control at 5 µg/mL ([1]; read-out: ovicidal activity): ≥ 90%; pest or weed control at 2.5 µg/mL [2, 7]: ≥ 95%; pest or weed control at 2.5 µg/mL [3, 8]: ≥ 90%
3 | CCn1nc(C)c(Cl)c1/C(OCOC(=O)C(F)(F)F)=C(\C#N)c1ccc(C(C)(C)C)cc1 [Compound 313] | ≥ 90% | ≥ 95% | ≥ 90% | –
4 | CCn1nc(C)c(C)c1/C(OCOC(C)=O)=C(\C#N)c1ccc(C(C)(C)C)cc1 [Compound 376] | ≥ 90% | ≥ 95% | ≥ 90% | –
5 | CCn1nc(C)c(C)c1/C(OCOC(=O)C(F)(F)F)=C(\C#N)c1ccc(C(C)(C)C)cc1 [Compound 388] | ≥ 90% | ≥ 95% | ≥ 90% | –
6 | CSCC(=O)OCO/C(=C(/C#N)c1ccc(C(C)(C)C)cc1)c1c(Cl)c(C)nn1C [Compound 85] | ≥ 90% | ≥ 95% | ≥ 90% | –
7 | Cc1nn(C)c(/C(OCOC(=O)C(F)(F)F)=C(\C#N)c2ccc(C(C)(C)C)cc2)c1Cl [Compound 88] | ≥ 90% | ≥ 95% | ≥ 90% | –
8 | CCSC(=O)OCO/C(=C(/C#N)c1ccc(C(C)(C)C)cc1)c1cc(C)nn1C [Compound 480] | ≥ 90% | ≥ 95% | ≥ 90% | –
9 | CCC(C)(C)C(=O)OC(C)O/C(=C(/C#N)c1ccc(C(C)(C)C)cc1)c1c(Cl)c(C)nn1C (stereo not drawn) [Compound 116] | ≥ 90% | ≥ 95% | ≥ 90% | –
10 | CCn1nc(C)c(Cl)c1/C(OCOC(=O)Cc1ccccc1)=C(\C#N)c1ccc(C(C)(C)C)cc1 [Compound 315] | ≥ 90% | – | ≥ 90% | pest or weed control at 2.5 µg/mL ([2]; concentration 2.5 mg/L, 48 h, read-out: nymph-killing activity): ≥ 95%
11 | CCn1nc(C)cc1/C(OCOC(=O)c1ccccc1)=C(\C#N)c1ccc(C(C)(C)C)cc1 [Compound 239] | ≥ 90% | ≥ 95% | ≥ 90% | –
12 | CCCC(=O)OCO/C(=C(/C#N)c1ccc(C(C)(C)C)cc1)c1c(C)c(C)nn1C [Compound 153] | ≥ 90% | ≥ 95% | ≥ 90% | –
13 | Cc1nn(C)c(/C(OC(C)OC(=O)CC(C)C)=C(\C#N)c2ccc(C(C)(C)C)cc2)c1Cl (stereo not drawn) [Compound 107] | ≥ 90% | ≥ 95% | ≥ 90% | –
14 | CCn1nc(C)cc1/C(OCOC(=O)OCC(C)C)=C(\C#N)c1ccc(C(C)(C)C)cc1 [Compound 553] | ≥ 90% | ≥ 95% | ≥ 90% | pest or weed control at 2 µg/mL [1, 9]: ≥ 90%; pest or weed control at 2 µg/mL [2, 10]: ≥ 90%; pest or weed control at 1.25 µg/mL [3, 8]: ≥ 90%
15 | Cc1nn(C)c(/C(OCOC(=O)CF)=C(\C#N)c2ccc(C(C)(C)C)cc2)c1C [Compound 162] | – | – | – | pest or weed control at 5 µg/mL ([1]; read-out: ovicidal activity): ≥ 90%; pest or weed control at 2.5 µg/mL [2, 7]: ≥ 95%; pest or weed control at 2.5 µg/mL [3, 8]: ≥ 90%
16 | CCn1nc(C)c(C)c1/C(OCOC(=O)C1CCCCC1)=C(\C#N)c1ccc(C(C)(C)C)cc1 [Compound 386] | ≥ 90% | ≥ 95% | ≥ 90% | –

Row | Structure (SMILES) | pest or weed control at 5 µg/mL [1, 4] | pest or weed control at 2.5 µg/mL [2, 5] | pest or weed control at 2.5 µg/mL [3, 6] | also measured
17 | CCn1nc(C)cc1/C(OCOC(=O)CSC)=C(\C#N)c1ccc(C(C)(C)C)cc1 [Compound 235] | ≥ 90% | ≥ 95% | ≥ 90% | –
18 | Cc1cc(/C(OC(C)OC(=O)C(C)(C)C)=C(\C#N)c2ccc(C(C)(C)C)cc2)n(C)n1 (stereo not drawn) [Compound 30] | ≥ 90% | ≥ 95% | ≥ 90% | –
19 | CCCOC(=O)OCO/C(=C(/C#N)c1ccc(C(C)(C)C)cc1)c1c(C)c(C)nn1CC [Compound 933] | ≥ 90% | ≥ 95% | ≥ 90% | pest or weed control at 2 µg/mL [1, 9]: ≥ 90%; pest or weed control at 2 µg/mL [2, 10]: ≥ 90%; pest or weed control at 1.25 µg/mL [3, 8]: ≥ 90%
20 | Cc1cc(/C(OCOC(=O)OC(C)C)=C(\C#N)c2ccc(C(C)(C)C)cc2)n(C)n1 [Compound 454] | ≥ 90% | ≥ 95% | ≥ 90% | –
21 | CCn1nc(C)c(C)c1/C(OC(C)OC(=O)CC(C)C)=C(\C#N)c1ccc(C(C)(C)C)cc1 (stereo not drawn) [Compound 407] | ≥ 90% | ≥ 95% | ≥ 90% | –
22 | CCn1nc(C)c(C)c1/C(OCOC(=O)OC)=C(\C#N)c1ccc(C(C)(C)C)cc1 [Compound 931] | ≥ 90% | ≥ 95% | ≥ 90% | pest or weed control at 2 µg/mL [1, 9]: ≥ 90%; pest or weed control at 2 µg/mL [1, 11]: 98%; pest or weed control at 2 µg/mL [2, 10]: ≥ 90%; pest or weed control at 0.5 µg/mL [2, 12]: 95%; pest or weed control at 1.25 µg/mL [3, 13]: 95%; pest or weed control at 1.25 µg/mL [3, 8]: ≥ 90%
23 | CSCC(=O)OC(C)O/C(=C(/C#N)c1ccc(C(C)(C)C)cc1)c1c(Cl)c(C)nn1C (stereo not drawn) [Compound 110] | ≥ 90% | ≥ 95% | ≥ 90% | –
24 | CCCC(=O)OCO/C(=C(/C#N)c1ccc(C(C)(C)C)cc1)c1cc(C)nn1C [Compound 3] | ≥ 90% | ≥ 95% | ≥ 90% | –
25 | CC(=O)OCO/C(=C(/C#N)c1ccc(C(C)(C)C)cc1)c1c(Cl)c(C)nn1C [Compound 76] | ≥ 90% | ≥ 95% | ≥ 90% | –
26 | C#CCOC(=O)OCO/C(=C(/C#N)c1ccc(C(C)(C)C)cc1)c1cc(C)nn1CC [Compound 572] | ≥ 90% | ≥ 95% | ≥ 90% | –
27 | CCn1nc(C)cc1/C(OCOC(=O)C(C)(C)CC)=C(\C#N)c1ccc(C(C)(C)C)cc1 [Compound 241] | ≥ 90% | ≥ 95% | ≥ 90% | pest or weed control at 2 µg/mL [1, 11]: 100%; pest or weed control at 0.5 µg/mL [2, 12]: 100%; pest or weed control at 1.25 µg/mL [3, 13]: 100%
28 | Cc1cc(/C(OC(C)OC(=O)OCCC(C)C)=C(\C#N)c2ccc(C(C)(C)C)cc2)n(C)n1 (stereo not drawn) [Compound 490] | ≥ 90% | ≥ 95% | ≥ 90% | –
29 | C=CC(=O)OCO/C(=C(/C#N)c1ccc(C(C)(C)C)cc1)c1c(Cl)c(C)nn1CC [Compound 317] | ≥ 90% | ≥ 95% | ≥ 90% | –
30 | Cc1nn(C)c(/C(OCOC(=O)c2ccccc2)=C(\C#N)c2ccc(C(C)(C)C)cc2)c1C [Compound 164] | ≥ 90% | ≥ 95% | ≥ 90% | –
31 | CCC(=O)OCO/C(=C(/C#N)c1ccc(C(C)(C)C)cc1)c1cc(C)nn1C [Compound 2] | ≥ 90% | ≥ 95% | ≥ 90% | –
32 | CCn1nc(C)c(Cl)c1/C(OCOC(=O)CSC)=C(\C#N)c1ccc(C(C)(C)C)cc1 [Compound 310] | ≥ 90% | ≥ 95% | ≥ 90% | –
